Measured values published in US20100093609A1, “PRODRUGS OF TRICIRIBINE AND TRICIRIBINE PHOSPHATE” (priority 2007, published 2010).

How the values were obtained:
in vitro = conditions: human
[1] = Systemic plasma concentrations after duodenal administration to rats; conditions: rat, duodenal administration of 3 mg
[2] = Stability in 100 mM phosphate buffer, pH 6.5; conditions: pH 6.5, 37° C., 0-3 hours, LC/MS/MS

IC50 at 8 days (in vitro): 32 µM | intestinal absorption / plasma levels (in words) [1]: very little intestinal absorption | peak plasma levels ([1]; FIGS. 5 and 6): about 1.25 ng/ml | AUC0-4 hr of the administered compound (parent or intact prodrug) ([1]; plasma over 4 hours): 4.4 ± 0.9 (ng/ml)/hr | stability in buffer (in words) [2]: stable
Structure (SMILES): CN1N=C(N)c2cn([C@@H]3O[C@H](COP(=O)(O)O)[C@@H](O)[C@H]3O)c3ncnc1c23 [TCNP, 6-amino-4-methyl-8-(beta.-D-ribofuranosyl)pyrrolo[4,3,2-de]pyrimido[4,5-c]pyridazine 5′ phosphate]
cytotoxic effects (in words) (HFF cells): more toxic than TCN
